These molecules were tested on AMPK (assay: AMPK activation assay (enzyme-linked immunosorbent assay)).
Assay type: cell-based
In short: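 Activation by each compound is measured using a conventional commercial immunoassay kit.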

First: N#Cc1ccc(CN2CCC(NC(=O)c3ccc(C(=O)N4CCC(S(=O)(=O)c5ccc(F)cc5)CC4)nc3)CC2)cc1 [Compound 471, N-(1-(4-cyanobenzyl)piperidin-4-yl)-6-(4-(4-fluorophenylsulfonyl)piperidine-1-carbonyl)nicotinamide]
Second: N#Cc1ccc(CN2CCC(NC(=O)c3ccc(C(=O)N4CCC(C(F)c5ccc(F)cc5)CC4)cn3)CC2)cc1 (centres unmarked) [Compound 138, N-(1-(4-cyanobenzyl)piperidin-4-yl)-5-(4-(fluoro(4-fluorophenyl)methyl)piperidine-1-carbonyl)picolinamide]
The EC50 of the first is higher: 1000 to 5000 nM for the first, less than 500 nM for the second.

`CSc1ccc(C(=O)C2CCN(C(=O)c3ccc(C(=O)NC4CCN(Cc5ccc(C#N)cc5)CC4)nc3)CC2)cc1` [Compound 372, N-(1-(4-cyanobenzyl)piperidin-4-yl)-5-(4-(4-(methylthio)benzoyl)piperidine-1-carbonyl)picolinamide] and `COc1ccc(C(=O)C2CCN(C(=O)c3ccc(C(=O)NC4CCN(Cc5ccc(C#N)cc5)CC4)nc3)CC2)cc1` [Compound 129, N-(1-(4-cyanobenzyl)piperidin-4-yl)-5-(4-(4-methoxybenzoyl)piperidine-1-carbonyl)picolinamide] cannot be ordered by EC50: less than 500 nM for the first, less than 500 nM for the second.

`COc1ccc(OC2CCN(C(=O)c3ccc(C(=O)Nc4ccc(Oc5ccc(F)cc5)nc4)nc3)CC2)cc1` [Compound 70, 5-(4-(4-methoxyphenoxy)piperidine-1-carbonyl)-N-(6-(4-fluorophenoxy)pyridin-3-yl)picolinamide] and `O=C(Nc1ccc(Oc2ccc(F)cc2)nc1)c1cnc(C(=O)N2CCC(Oc3ccc(C(F)(F)F)cc3)CC2)cn1` [Compound 205, N-(6-(4-fluorophenoxy)pyridin-3-yl)-5-(4-(4-(trifluoromethyl)phenoxy)piperidine-1-carbonyl)pyrazine-2-carboxamide] cannot be ordered by EC50: less than 500 nM for the first, less than 500 nM for the second.

`CC(=O)c1ccc(Oc2ccc(NC(=O)c3ccc(C(=O)N4CCC(Oc5ccc(S(=O)(=O)C6CC6)cc5)CC4)nc3)cn2)cc1` [Compound 486, N-(6-(4-acetylphenoxy)pyridin-3-yl)-6-(4-(4-(cyclopropylsulfonyl)phenoxy)piperidine-1-carbonyl)nicotinamide] and `CS(=O)(=O)c1ccc(OC2CCN(C(=O)c3ccc(C(=O)NC4CCC(Oc5ccc(C#N)cc5)CC4)cn3)CC2)cc1` (centres unmarked) [Compound 398, N-(4-(4-cyanophenoxy)cyclohexyl)-6-(4-(4-(methylsulfonyl)phenoxy)piperidine-1-carbonyl)nicotinamide] cannot be ordered by EC50: less than 500 nM for the first, less than 500 nM for the second.

First: N#Cc1ccc(CN2CCC(NC(=O)c3ccc(C(=O)N4CCC(Oc5ccc(NC(=O)CCOCCOCCOCCOCCNC(=O)CCC[C@@H]6SC[C@@H]7NC(=O)N[C@@H]76)cc5)CC4)nc3)CC2)cc1 [Compound 371, N-(1-(4-cyanobenzyl)piperidin-4-yl)-6-(4-(4-(17-oxo-20-((3aS,4S,6aR)-2-oxohexahydro-1H-thieno[3,4-d]imidazol-4-yl)-4,7,10,13-tetraoxa-16-azaicosanamido)phenoxy)piperidine-1-carbonyl)nicotinamide]
Second: N#Cc1ccc(CN2CCC(NC(=O)c3ccc(C(=O)N4CCC(Oc5ccc(C#N)cc5)CC4)nc3)CC2)cc1 [Compound 323, N-(1-(4-cyanobenzyl)piperidin-4-yl)-6-(4-(4-cyanophenoxy)piperidine-1-carbonyl)nicotinamide]
The EC50 of the first is higher: greater than 10000 nM for the first, less than 500 nM for the second. The second is the more potent here.

`COc1ccc(C(=O)C2CCN(c3ccc(C(=O)NC4CCN(Cc5ccc(C#N)cc5)CC4)nn3)CC2)cc1` [Compound 362, N-(1-(4-cyanobenzyl)piperidin-4-yl)-6-(4-(4-methoxybenzoyl)piperidin-1-yl)pyridazine-3-carboxamide] and `COc1ccc(CN2CCN(C(=O)c3ccc(C(=O)NC4CCN(Cc5ccc(C#N)cc5)CC4)nc3)CC2)cc1` [Compound 101, N-(1-(4-cyanobenzyl)piperidin-4-yl)-5-(4-(4-methoxybenzyl)piperazine-1-carbonyl)picolinamide] cannot be ordered by EC50: less than 500 nM for the first, less than 500 nM for the second.

`O=C(NC1CCN(Cc2ccc(F)cc2)CC1)c1ccc(C(=O)N2CCN(Cc3ccc(F)cc3)CC2)nc1` [Compound 328, 6-(4-(4-fluorobenzyl)piperazine-1-carbonyl)-N-(1-(4-fluorobenzyl)piperidin-4-yl)nicotinamide] and `COc1ccc(CN2CCC(NC(=O)c3ccc(C(=O)N4CCN(Cc5ccc(F)cc5)CC4)cn3)CC2)cc1` [Compound 117, 5-(4-(4-fluorobenzyl)piperazine-1-carbonyl)-N-(1-(4-methoxybenzyl)piperidin-4-yl)picolinamide] cannot be ordered by EC50: less than 500 nM for the first, less than 500 nM for the second.

`COc1ccc(CN2CCC(NC(=O)c3ccc(C(=O)N4CCC(Oc5ccc(S(C)(=O)=O)cc5)CC4)cn3)CC2)cc1` [Compound 202, N-(1-(4-methoxybenzyl)piperidin-4-yl)-5-(4-(4-(methylsulfonyl)phenoxy)piperidine-1-carbonyl)picolinamide] and `CS(=O)(=O)c1ccc(OC2CCN(C(=O)c3ccc(C(=O)NC4CCN(Cc5ccc(F)cc5)CC4)nc3)CC2)cc1` [Compound 226, N-(1-(4-fluorobenzyl)piperidin-4-yl)-5-(4-(4-(methylsulfonyl)phenoxy)piperidine-1-carbonyl)picolinamide] cannot be ordered by EC50: less than 500 nM for the first, less than 500 nM for the second.

`N#Cc1ccc(CN2CCC(NC(=O)c3ccc(C(=O)N4CCC(Oc5ccc(F)c(F)c5)CC4)cn3)CC2)cc1` [Compound 158, N-(1-(4-cyanobenzyl)piperidin-4-yl)-5-(4-(3,4-difluorophenoxy)piperidine-1-carbonyl)picolinamide] and `COc1cccc(OC2CCCN(C(=O)c3ccc(C(=O)NC4CCN(Cc5ccc(C#N)cc5)CC4)nc3)C2)c1` (centres unmarked) [Compound 277, N-(1-(4-cyanobenzyl)piperidin-4-yl)-5-(3-(3-methoxyphenoxy)piperidine-1-carbonyl)picolinamide] cannot be ordered by EC50: less than 500 nM for the first, less than 500 nM for the second.

Compared with `CC(C)(c1ccc(C#N)cc1)N1CCC(NC(=O)c2ccc(C(=O)N3CCN(Cc4ccc(F)cc4)CC3)cn2)CC1` [Compound 111, N-(1-(2-(4-cyanophenyl)propan-2-yl)piperidin-4-yl)-5-(4-(4-fluorobenzyl)piperazine-1-carbonyl)picolinamide], `N#Cc1ccc(N2CCC(NC(=O)c3ccc(C(=O)N4CCN(Cc5ccc(F)cc5)CC4)nc3)CC2)cc1` [Compound 417, N-(1-(4-cyanophenyl)piperidin-4-yl)-6-(4-(4-fluorobenzyl)piperazine-1-carbonyl)nicotinamide] is lower in EC50: 1000 to 5000 nM for the first, less than 500 nM for the second.

Going from `C[S+]([O-])c1ccc(C(=O)C2CCN(C(=O)c3ccc(C(=O)NC4CC[N+]([O-])(Cc5ccc(C#N)cc5)CC4)nc3)CC2)cc1` (centres unmarked) [Compound 374, 1-(4-cyanobenzyl)-4-(5-(4-(4-(methylsulfinyl)benzoyl)piperidine-1-carbonyl)picolinamido)piperidine 1-oxide] to `COc1ccc(CN2CCC(NC(=O)c3ccc(C(=O)N4CCC(C(=O)c5ccc(S(C)(=O)=O)cc5)CC4)cn3)CC2)cc1` [Compound 234, N-(1-(4-methoxybenzyl)piperidin-4-yl)-5-(4-(4-(methylsulfonyl)benzoyl)piperidine-1-carbonyl)picolinamide], the EC50 falls from greater than 10000 nM to less than 500 nM.

First: O=C(Nc1ccc(-c2cc[nH]c2)cc1)c1ccc(C(=O)N2CCN(Cc3ccc(F)cc3)CC2)cn1 [Compound 39, 5-(4-(4-fluorobenzyl)piperazine-1-carbonyl)-N-(4-(1H-pyrrol-3-yl)phenyl)picolinamide]
Second: CC(c1ccccc1)N1CCC(NC(=O)c2ccc(C(=O)N3CCN(Cc4ccc(F)cc4)CC3)cn2)CC1 (centres unmarked) [Compound 18, 5-(4-(4-fluorobenzyl)piperazine-1-carbonyl)-N-(1-(1-phenylethyl)piperidin-4-yl)picolinamide]
The EC50 of the first is higher: 1000 to 5000 nM for the first, less than 500 nM for the second. The second is the more potent here.

`COc1ccc(OC2CCN(C(=O)c3ccc(C(=O)N[C@H]4CC[C@@H](Oc5ccc(C#N)cc5)CC4)nc3)CC2)cc1` [Compound 174, N-((cis)-4-(4-cyanophenoxy)cyclohexyl)-5-(4-(4-methoxyphenoxy)piperidine-1-carbonyl)picolinamide] and `N#Cc1ccc(O[C@H]2CC[C@@H](NC(=O)c3ccc(C(=O)N4CCC(Oc5ccc(C(F)(F)F)cc5)CC4)cn3)CC2)cc1F` [Compound 199, N-((cis)-4-(4-cyano-3-fluorophenoxy)cyclohexyl)-5-(4-(4-(trifluoromethyl)phenoxy)piperidine-1-carbonyl)picolinamide] cannot be ordered by EC50: less than 500 nM for the first, less than 500 nM for the second.

`O=C(NC1CCN(CC2CCCCC2)CC1)c1ccc(C(=O)N2CCN(Cc3ccc(F)cc3)CC2)cn1` [Compound 13, N-(1-(cyclohexylmethyl)piperidin-4-yl)-5-(4-(4-fluorobenzyl)piperazine-1-carbonyl)picolinamide] and `CC(C)N1CCN(C(=O)c2ccc(C(=O)NC3CCN(Cc4ccc(C#N)cc4)CC3)nc2)CC1` [Compound 84, N-(1-(4-cyanobenzyl)piperidin-4-yl)-5-(4-isopropylpiperazine-1-carbonyl)picolinamide] fall in the same range of EC50: 1000 to 5000 nM for the first, 1000 to 5000 nM for the second.

`COc1ccc(C(=O)C2CCN(C(=O)c3ccc(C(=O)N[C@H]4CC[C@@H](Oc5ccc(C(F)(F)F)cc5)CC4)nc3)CC2)cc1` [Compound 192, 5-(4-(4-methoxybenzoyl)piperidine-1-carbonyl)-N-((cis)-4-(4-(trifluoromethyl)phenoxy)cyclohexyl) picolinamide] and `CN1CCN(c2ccc(C(=O)C3CCN(C(=O)c4ccc(C(=O)NC5CCN(Cc6ccc(C#N)cc6)CC5)cn4)CC3)cc2)CC1` [Compound 243, N-(1-(4-cyanobenzyl)piperidin-4-yl)-6-(4-(4-(4-methylpiperazin-1-yl)benzoyl)piperidine-1-carbonyl)nicotinamide] cannot be ordered by EC50: less than 500 nM for the first, less than 500 nM for the second.

`CS(=O)(=O)Nc1ccc(CN2CCC(NC(=O)c3ccc(C(=O)N4CCC(C(=O)c5ccc(F)cc5F)CC4)nc3)CC2)cc1` [Compound 216, 6-(4-(2,4-difluorobenzoyl)piperidine-1-carbonyl)-N-(1-(4-(methylsulfonamido)benzyl)piperidin-4-yl)nicotinamide] and `O=C(Nc1ccc(-c2ccccc2)cc1)c1ccc(C(=O)NC2CCN(Cc3ccccc3)CC2)nc1` [Compound 105, N2-(1-benzylpiperidin-4-yl)-N5-(biphenyl-4-yl)pyridine-2,5-dicarboxamide] cannot be ordered by EC50: greater than 10000 nM for the first, greater than 10000 nM for the second.

— patent US20150087673A1, “METHODS FOR USING AND BIOMARKERS FOR AMPK-ACTIVATING COMPOUNDS” (RIGEL PHARMACEUTICALS, INC., priority 2013, published 2015)
